Source: paper PMC5587642, “A Novel Benzocoumarin-Stilbene Hybrid as a DNA ligase I inhibitor with in vitro and in vivo anti-tumor activity in breast cancer models” (Scientific Reports, 2017)
Entries after “also recorded” stand apart in the source; their conditions may differ.

Tests used:
[1] = test system: MDA-MB-231 cells; assay: Clonogenic survival assay; assay type: cell-based, human; conditions: 0.75, 1.5 and 3 µM; 24 and 48 h treatment
Protocol: Clonogenic survival assay was performed as described previously[16] with modifications. MDA-MB-231 cells (100 cells) were seeded in 12 well plates for 24 h. Cells were then treated with different concentrations of compound 19 (0.75, 1.5 and 3 µM) for 24 and 48 h. After drug treatment, culture medium was replaced with fresh medium and cells were cultured for another 10 days. After 10 days, the cells were washed with PBS carefully and stained with a solution containing 6% glutaraldehyde and 0.5% crystal violet.

[2] = test system: plasmid DNA (pUC18); assay: DNaseI cleavage protection assay; assay type: binding; conditions: up to 500 µM
Protocol: We performed DNaseI cleavage assay as described in our previous study. Briefly, 100 ng of plasmid DNA (pUC18) was incubated with 100 µM concentration of doxorubicin (a known DNA intercalator), DAPI (DNA minor groove binder), methyl green (DNA major groove binder) and compound 19 (at 250 and 500 µM concentrations) for 30 min at 37 °C in an incubation buffer similar to ligation buffer. After incubation, the DNA was cleaved by adding 0.0025U of DNaseI in each reaction mixture for 5 min at 37 °C and the reactions were stopped by adding stop buffer which contained 7 M Urea, 20 mM Tris-Cl (pH. 7.5), 50 mM EDTA, 20% glycerol and Bromophenol blue. The samples were resolved on 1% agarose gel and visualized under UV transilluminator and image taken with GE Image quant LAS4010.

[3] = target: T1, hLigI (Homo sapiens, UniProt P18858); assay: In-vitro fluorescence quenching assay; assay type: binding; conditions: 5 and 10 µM, excitation 280 nm
T1 construct: made in house
Protocol: In-vitro fluorescence quenching assay was performed as described previously[16] with brief modifications. At the fixed excitation wavelength 280 nm emission spectra of hLigI (100 pmol) was recorded from 300 to 400 nm in the presence (5 and 10 µM) or absence of compound 19 by spectrofluorometer. Compound 19 was used at 5 and 10 µM concentration with hLigI (100 pmol). Spectra was acquired for buffer alone (50 mM Tris-HCl, pH 7.5, 50 mM NaCl, 1 mM ATP, 10 mM MgCl2, 2 mM DTT and 5% glycerol), buffer with vehicle control, buffer with inhibitor alone and for buffer with protein and inhibitor.

[4] = target: T2, hLigI and DNA complex (Homo sapiens, UniProt P18858); assay: Electrophoretic mobility shift assay (EMSA); assay type: binding; conditions: 120, 250, 500 µM
T2 construct: made in house
Protocol: EMSA was performed as described previously. Briefly, in 20 μl reaction volume 2 pmol non-ligatable nicked DNA substrate was incubated with DMSO (vehicle control) or with different concentrations (120, 250, 500 µM) of compound 19 incubated with 10 pmol of hligI in ligation buffer. After the incubation, samples were separated by 6.5% native PAGE and bands were detected and imaged by Image Quant LAS 4010 (GE Life sciences).

[5] = test system: 4T1 mouse breast cancer induced syngeneic breast tumor; assay: Syngeneic 4T1 orthotopic breast cancer model; assay type: in vivo, BALB/c mice; conditions: 50 and 100 mg/kg, oral gavage daily for 32 days
Protocol: Animal studies were conducted under the protocol approved by the CSIR-CDRI Institutional Animal Ethics Committee (IAEC approval no. IAEC/2015/03). The in-vivo efficacy studies were performed using BALB/c mice with 4T1 mouse breast cancer induced syngeneic breast tumor model. Mouse tumor model was generated as described by Pulaski et al.[38]. Three different groups of 6 mice each were created for the experiment. Mouse breast cancer cells (4T1) were grown in tissue culture flask upto 70% confluence. Cells were then trypsinized, washed with serum containing medium to quench trypsin activity and then washed and resuspended in PBS. Then cells were injected orthotopically (1 × 10^6 cells in 100 μl PBS) into the mammary fat pad on the right flank of each female BALB/c mouse. Within 2 weeks, palpable tumors were formed and tumor bearing mice were divided randomly into one control and two treatment groups of six mice each. The treatment schedule began on day 16 of the injection and continued for another thirty two days. Compounds were administered by oral gavage once daily at 50 and 100 mg/kg. Tumor volumes were measured every fourth day. The group of vehicle treated animals served as control. The tumor volume, body weight and any behavioral changes in mice were monitored and recorded for the entire duration of the experiment (32 days). Tumor volumes were calculated using the formula (a × b^2)/2, where a, b are two longest perpendicular diameters.

[6] = test system: MDA-MB-231 cells; assay: Scratch (migration) assay; assay type: cell-based, human; conditions: 3 and 6 µM; 12 and 24 h
Protocol: The migration capacity of highly metastatic human breast cancer MDA-MB-231 cells was assessed by in-vitro scratch assay as described previously[36] with some modifications. Briefly, cells were plated in 12 well plates and a scratch was created by scraping the cells with a sterile 10 μL pipet tip in the middle of the culture well. After removal of cellular debris, the cells were treated with different concentrations of the test compound. Images of the wound area were captured at 0, 12 and 24 h post-treatment. Wound area was measured by TScratch software and data were expressed as percent (%) open area of control and treated cells.

T1 sequence (P18858 whole entry): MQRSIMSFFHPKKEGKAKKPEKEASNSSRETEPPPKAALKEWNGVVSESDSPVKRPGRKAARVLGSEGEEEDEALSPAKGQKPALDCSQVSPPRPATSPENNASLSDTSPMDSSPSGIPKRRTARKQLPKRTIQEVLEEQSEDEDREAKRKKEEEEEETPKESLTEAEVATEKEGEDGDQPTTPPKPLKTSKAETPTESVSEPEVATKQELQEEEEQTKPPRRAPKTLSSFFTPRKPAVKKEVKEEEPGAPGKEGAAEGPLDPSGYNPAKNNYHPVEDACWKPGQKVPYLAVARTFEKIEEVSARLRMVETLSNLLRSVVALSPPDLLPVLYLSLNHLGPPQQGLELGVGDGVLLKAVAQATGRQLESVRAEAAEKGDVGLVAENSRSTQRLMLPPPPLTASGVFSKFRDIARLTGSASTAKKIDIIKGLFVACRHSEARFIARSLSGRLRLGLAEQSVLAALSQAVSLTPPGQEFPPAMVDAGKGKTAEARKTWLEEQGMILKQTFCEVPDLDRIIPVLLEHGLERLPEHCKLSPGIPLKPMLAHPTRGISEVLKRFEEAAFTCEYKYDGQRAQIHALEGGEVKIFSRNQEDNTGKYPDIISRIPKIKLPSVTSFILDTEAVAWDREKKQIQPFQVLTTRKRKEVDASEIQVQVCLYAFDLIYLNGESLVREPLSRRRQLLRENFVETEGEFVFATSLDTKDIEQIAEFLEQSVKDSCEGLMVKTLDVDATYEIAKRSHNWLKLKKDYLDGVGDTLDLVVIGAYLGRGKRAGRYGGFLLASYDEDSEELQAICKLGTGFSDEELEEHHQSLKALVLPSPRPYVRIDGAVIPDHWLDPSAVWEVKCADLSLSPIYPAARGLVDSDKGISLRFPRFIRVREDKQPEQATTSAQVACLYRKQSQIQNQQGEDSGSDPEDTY
T2 sequence (P18858 whole entry, one chain of several): as the sequence (P18858 whole entry) above

## COc1cc(/C=C/c2cc(=O)oc3c2ccc2ccccc23)cc(OC)c1 [Compound 19, (E)-4-(3,5-dimethoxystyryl)-2H-benzo[h]chromen-2-one]
[1]
  Colony forming ability: inhibited colony forming ability of cells
[2]
  Protection of DNA from cleavage by DNase I (DNA binding): no protection from cleavage by DNase I
[3]
  Change of hLigI fluorescence spectra (protein binding): fluorescence spectra of the full length hLigI protein changed
[4]
  hLigI and DNA complex formation (EMSA): decreased the hLigI and DNA complex formation
[5]
  Average body weight: no significant change in the average body weight
  Breast cancer metastasis to the lungs (4T1 nodules): marked decrease in breast cancer metastasis to the lungs
  Breast tumor growth in-vivo: inhibited breast tumor growth in-vivo in a dose dependent manner; also recorded: arrested tumor progression but could not induce tumor regression
[6]
  Cell migration (percent open area): significantly inhibit the cell migration
